Measurements: patent publication US12679822B2, “Alkenyl pyrimidine compound, preparation method therefor, and application thereof” (Hongyun Biotech Co., Ltd., priority 2020, dated 2026)

Experiments:
Type in all cases: cell-based
[1] = biological target: BaF3 cell lines stably transfected with kinase EGFR Del (Homo sapiens, UniProt P00533, cells depend on it, form not given); assay: Growth inhibition of BaF3 cell line stably transfected with kinase EGFR Del (MTS); conditions: 48 h, read-out: growth inhibitory activity IC50, Del
Description: (§1) Biological Activity Assay: Growth Inhibitory Activity of Compounds on Cell Lines Stably Transfected with Kinase
(§2) The activity of compounds against various mutants of kinase EGFR was evaluated by their effect of inhibiting growth of BaF3 cell lines stably transfected with kinase. The specific test method was given as follows:
(§3) 1) Culture medium: DMEM (Dulbecco's modified eagle medium) or RPMI 1640 (containing 10% fetal bovine serum, 100 μg/mL ampicillin, 100 μg/mL streptomycin).
(§4) 2) Reagent: MTS reaction solution (containing 2 mg/mL of MTS [3-(4,5-di methylthiazol-2-yl)-5-(3-carboxymethoxyphenyl)-2-(4-sulfophenyl)-2H-tetrazolium, inner Salt]; 100 μg/mL of PES (phenazine […])).
(§5) 3) Compound test: cells were incubated into a 96-well culture plate, the volume of cytosol was 90 μL, and then 10 μL of the compound at each gradient concentration was added. That is, the highest concentration was 10 μM, which was diluted stepwise by ⅓, and 8 concentration points were set in total; 0.1% DMSO (dimethyl sulfoxide) was contained in the system. The cell plate with uniformly mixed compound was cultured in a cell culture incubator (37° C.; 5% […]) for 48 h, then 20 μL of MTS reaction solution was added, uniformly mixed and incubated in the cell culture incubator (37° C.; 5% CO2) for 1-4 h; OD values at 490 nm were measured by a microplate reader (VARIOSKAN FLASH, Thermo). Two parallels were set in each group of experiments, with 0.1% (a final concentration) DMSO as a negative control, and a culture medium without cells and compounds as a blank control. The cell growth inhibition rate was calculated by the following formula: Cell growth inhibition rate %=1−(ODexperimental group−ODblank group)/(ODnegative group−ODblank group)×100%.
(§6) 4) IC50 calculation: The semi-inhibitory concentration of the compounds acting on cells was calculated using GradPad Prism 5 software according to the measured cell growth inhibition rate.

[2] = biological target: BaF3 cell lines stably transfected with kinase EGFR L858R (Homo sapiens, UniProt P00533, L858R, cells depend on it); assay: Growth inhibition of BaF3 cell line stably transfected with kinase EGFR L858R (MTS); conditions: 48 h, read-out: growth inhibitory activity IC50, L858R
Description: as §1, §2, §3, §4, §5, §6

[3] = biological target: BaF3 cell lines stably transfected with kinase EGFR Del/T790M (Homo sapiens, UniProt P00533, T790M, cells depend on it, form not given); assay: Growth inhibition of BaF3 cell line stably transfected with kinase EGFR Del/T790M (MTS); conditions: 48 h, read-out: growth inhibitory activity IC50, Del/T790M
Description: as §1, §2, §3, §4, §5, §6

[4] = biological target: BaF3 cell lines stably transfected with kinase EGFR L858R/T790M (Homo sapiens, UniProt P00533, T790M/L858R, cells depend on it); assay: Growth inhibition of BaF3 cell line stably transfected with kinase EGFR L858R/T790M (MTS); conditions: 48 h, read-out: growth inhibitory activity IC50, L858R/T790M
Description: as §1, §2, §3, §4, §5, §6

[5] = biological target: BaF3 cell lines stably transfected with kinase EGFR Del/T790M/C797S (Homo sapiens, UniProt P00533, T790M/C797S, cells depend on it, form not given); assay: Growth inhibition of BaF3 cell line stably transfected with kinase EGFR Del/T790M/C797S (MTS); conditions: 48 h, read-out: growth inhibitory activity IC50, Del/T790M/C797S
Description: as §1, §2, §3, §4, §5, §6

[6] = biological target: BaF3 cell lines stably transfected with kinase EGFR L858R/T790M/C797S (Homo sapiens, UniProt P00533, T790M/C797S/L858R, cells depend on it); assay: Growth inhibition of BaF3 cell line stably transfected with kinase EGFR L858R/T790M/C797S (MTS); conditions: 48 h, read-out: growth inhibitory activity IC50, L858R/T790M/C797S
Description: as §1, §2, §3, §4, §5, §6

Sequence of BaF3 cell lines stably transfected with kinase EGFR L858R (P00533 whole entry L858R): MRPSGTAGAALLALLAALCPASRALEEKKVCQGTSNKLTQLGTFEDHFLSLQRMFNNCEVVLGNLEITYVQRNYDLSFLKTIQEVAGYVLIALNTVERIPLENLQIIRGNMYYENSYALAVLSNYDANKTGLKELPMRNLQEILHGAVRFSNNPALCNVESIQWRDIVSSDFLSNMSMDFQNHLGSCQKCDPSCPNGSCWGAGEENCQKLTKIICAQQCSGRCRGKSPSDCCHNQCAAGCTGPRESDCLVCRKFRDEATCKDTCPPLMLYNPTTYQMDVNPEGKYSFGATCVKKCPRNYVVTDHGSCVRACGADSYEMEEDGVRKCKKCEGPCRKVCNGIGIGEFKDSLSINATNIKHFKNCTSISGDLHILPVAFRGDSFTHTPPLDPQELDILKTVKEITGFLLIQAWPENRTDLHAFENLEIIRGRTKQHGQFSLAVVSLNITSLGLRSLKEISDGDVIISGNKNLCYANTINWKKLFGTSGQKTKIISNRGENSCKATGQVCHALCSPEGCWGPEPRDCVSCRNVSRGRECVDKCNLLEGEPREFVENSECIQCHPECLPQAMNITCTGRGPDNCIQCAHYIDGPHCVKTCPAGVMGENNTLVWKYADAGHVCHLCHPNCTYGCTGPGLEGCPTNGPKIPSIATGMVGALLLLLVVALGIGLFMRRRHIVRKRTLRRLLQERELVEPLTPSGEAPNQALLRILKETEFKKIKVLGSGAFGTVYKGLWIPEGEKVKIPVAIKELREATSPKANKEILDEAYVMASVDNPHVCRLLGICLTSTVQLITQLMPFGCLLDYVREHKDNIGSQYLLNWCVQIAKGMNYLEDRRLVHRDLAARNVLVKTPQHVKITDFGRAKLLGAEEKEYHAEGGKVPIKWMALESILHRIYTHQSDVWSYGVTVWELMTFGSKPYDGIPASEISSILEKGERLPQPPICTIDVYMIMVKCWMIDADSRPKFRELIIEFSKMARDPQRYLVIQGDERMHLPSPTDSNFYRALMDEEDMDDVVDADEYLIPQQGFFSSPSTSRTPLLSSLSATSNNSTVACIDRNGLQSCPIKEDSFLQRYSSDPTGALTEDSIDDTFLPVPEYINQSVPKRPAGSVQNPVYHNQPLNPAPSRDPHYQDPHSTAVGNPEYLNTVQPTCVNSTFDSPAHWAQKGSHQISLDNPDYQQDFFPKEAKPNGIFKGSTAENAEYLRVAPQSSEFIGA
Sequence of BaF3 cell lines stably transfected with kinase EGFR L858R/T790M/C797S (P00533 whole entry T790M/C797S/L858R): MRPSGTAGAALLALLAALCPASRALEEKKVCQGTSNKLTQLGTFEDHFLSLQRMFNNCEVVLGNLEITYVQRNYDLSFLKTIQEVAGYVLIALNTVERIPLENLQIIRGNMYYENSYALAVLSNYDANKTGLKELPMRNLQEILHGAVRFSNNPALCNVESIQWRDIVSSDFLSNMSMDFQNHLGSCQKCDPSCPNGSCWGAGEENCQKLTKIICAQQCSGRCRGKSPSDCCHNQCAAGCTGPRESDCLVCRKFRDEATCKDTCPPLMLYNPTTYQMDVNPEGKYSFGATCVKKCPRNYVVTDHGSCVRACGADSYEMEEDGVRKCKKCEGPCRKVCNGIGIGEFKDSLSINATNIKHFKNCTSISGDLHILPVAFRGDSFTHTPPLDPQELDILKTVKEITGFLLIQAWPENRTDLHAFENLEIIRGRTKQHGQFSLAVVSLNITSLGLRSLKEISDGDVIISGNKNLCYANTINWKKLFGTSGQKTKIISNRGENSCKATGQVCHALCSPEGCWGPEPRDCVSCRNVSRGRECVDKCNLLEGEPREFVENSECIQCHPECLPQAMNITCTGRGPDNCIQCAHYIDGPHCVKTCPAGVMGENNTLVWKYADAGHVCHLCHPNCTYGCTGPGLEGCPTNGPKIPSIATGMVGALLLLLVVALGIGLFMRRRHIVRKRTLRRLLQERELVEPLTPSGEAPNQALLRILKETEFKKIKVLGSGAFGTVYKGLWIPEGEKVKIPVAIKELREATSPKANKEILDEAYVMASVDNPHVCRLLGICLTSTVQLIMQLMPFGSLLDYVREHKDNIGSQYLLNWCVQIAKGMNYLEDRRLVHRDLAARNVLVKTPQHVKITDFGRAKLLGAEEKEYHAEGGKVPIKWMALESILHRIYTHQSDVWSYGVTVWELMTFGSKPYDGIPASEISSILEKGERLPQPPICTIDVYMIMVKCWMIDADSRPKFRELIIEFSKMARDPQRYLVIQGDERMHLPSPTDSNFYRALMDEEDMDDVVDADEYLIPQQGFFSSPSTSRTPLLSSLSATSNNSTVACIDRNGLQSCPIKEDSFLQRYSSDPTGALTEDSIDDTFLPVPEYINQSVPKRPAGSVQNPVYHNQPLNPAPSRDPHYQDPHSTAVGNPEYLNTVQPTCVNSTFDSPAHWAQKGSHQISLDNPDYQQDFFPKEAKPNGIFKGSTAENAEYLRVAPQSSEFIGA
Sequence of BaF3 cell lines stably transfected with kinase EGFR Del/T790M/C797S (P00533 with tags, fused parts or gaps DEL746-750/T790M/C797S, form open): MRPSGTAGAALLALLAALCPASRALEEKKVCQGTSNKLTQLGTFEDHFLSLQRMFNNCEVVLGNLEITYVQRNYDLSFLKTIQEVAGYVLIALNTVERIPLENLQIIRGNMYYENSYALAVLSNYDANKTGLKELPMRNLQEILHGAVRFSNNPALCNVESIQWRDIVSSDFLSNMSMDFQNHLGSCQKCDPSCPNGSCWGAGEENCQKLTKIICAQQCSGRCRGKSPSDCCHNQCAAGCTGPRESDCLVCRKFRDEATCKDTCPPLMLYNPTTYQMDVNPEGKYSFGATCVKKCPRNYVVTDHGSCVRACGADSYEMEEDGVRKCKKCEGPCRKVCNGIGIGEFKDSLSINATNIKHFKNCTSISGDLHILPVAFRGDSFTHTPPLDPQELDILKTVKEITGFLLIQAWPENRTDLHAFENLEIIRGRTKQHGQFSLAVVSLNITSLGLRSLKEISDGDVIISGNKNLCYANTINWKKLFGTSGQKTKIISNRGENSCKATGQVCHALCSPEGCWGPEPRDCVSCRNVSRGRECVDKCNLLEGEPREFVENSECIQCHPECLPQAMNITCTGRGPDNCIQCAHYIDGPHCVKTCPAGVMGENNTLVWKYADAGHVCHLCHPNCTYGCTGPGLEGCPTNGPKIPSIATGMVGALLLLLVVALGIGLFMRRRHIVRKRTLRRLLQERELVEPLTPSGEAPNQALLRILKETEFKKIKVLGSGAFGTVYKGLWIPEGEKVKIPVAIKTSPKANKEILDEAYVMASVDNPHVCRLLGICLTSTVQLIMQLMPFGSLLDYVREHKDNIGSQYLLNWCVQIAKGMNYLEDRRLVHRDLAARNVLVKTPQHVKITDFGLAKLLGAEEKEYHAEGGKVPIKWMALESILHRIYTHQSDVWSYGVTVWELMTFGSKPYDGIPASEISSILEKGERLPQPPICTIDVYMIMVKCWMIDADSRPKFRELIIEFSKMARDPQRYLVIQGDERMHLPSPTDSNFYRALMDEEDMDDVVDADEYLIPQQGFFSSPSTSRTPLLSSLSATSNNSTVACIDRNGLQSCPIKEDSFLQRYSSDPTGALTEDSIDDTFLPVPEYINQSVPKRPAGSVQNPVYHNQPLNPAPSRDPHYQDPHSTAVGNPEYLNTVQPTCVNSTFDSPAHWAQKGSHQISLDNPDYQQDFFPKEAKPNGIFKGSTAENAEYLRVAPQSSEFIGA
Sequence of BaF3 cell lines stably transfected with kinase EGFR L858R/T790M (P00533 whole entry T790M/L858R): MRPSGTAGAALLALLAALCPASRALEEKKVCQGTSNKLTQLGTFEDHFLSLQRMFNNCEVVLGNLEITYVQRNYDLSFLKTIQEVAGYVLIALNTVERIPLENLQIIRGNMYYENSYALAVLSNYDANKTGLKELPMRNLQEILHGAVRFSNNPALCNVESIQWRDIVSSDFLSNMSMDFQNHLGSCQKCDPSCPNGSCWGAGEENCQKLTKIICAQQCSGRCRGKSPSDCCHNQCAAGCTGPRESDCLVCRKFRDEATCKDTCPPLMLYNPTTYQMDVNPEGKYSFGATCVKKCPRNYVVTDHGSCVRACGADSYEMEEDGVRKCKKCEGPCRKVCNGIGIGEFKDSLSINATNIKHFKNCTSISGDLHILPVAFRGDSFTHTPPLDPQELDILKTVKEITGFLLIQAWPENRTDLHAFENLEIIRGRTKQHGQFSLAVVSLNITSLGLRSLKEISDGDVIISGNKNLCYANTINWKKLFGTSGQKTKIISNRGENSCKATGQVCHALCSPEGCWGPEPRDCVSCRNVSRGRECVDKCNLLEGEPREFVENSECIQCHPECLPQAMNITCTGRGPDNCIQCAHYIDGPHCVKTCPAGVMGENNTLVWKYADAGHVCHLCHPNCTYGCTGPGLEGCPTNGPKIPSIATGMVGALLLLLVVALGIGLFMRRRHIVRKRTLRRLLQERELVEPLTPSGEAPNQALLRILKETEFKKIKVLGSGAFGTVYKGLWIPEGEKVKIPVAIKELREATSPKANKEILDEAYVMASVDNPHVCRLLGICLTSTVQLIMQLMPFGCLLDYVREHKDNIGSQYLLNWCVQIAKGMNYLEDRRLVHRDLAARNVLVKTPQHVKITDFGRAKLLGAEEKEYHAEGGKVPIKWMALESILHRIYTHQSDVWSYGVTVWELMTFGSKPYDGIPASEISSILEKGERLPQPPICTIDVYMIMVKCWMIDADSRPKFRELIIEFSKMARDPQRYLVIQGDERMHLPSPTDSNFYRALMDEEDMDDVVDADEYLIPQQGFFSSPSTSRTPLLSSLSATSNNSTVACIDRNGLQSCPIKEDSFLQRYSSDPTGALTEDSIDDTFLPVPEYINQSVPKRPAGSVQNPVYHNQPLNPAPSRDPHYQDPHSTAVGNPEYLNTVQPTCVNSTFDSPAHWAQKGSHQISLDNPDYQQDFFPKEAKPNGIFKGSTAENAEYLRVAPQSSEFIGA

Structure (SMILES)	GI50 [1] [nM]	GI50 [2] [nM]	GI50 [3] [nM]	GI50 [4] [nM]	GI50 [5] [nM]	GI50 [6] [nM]
C=Cc1cnc(Nc2cc(CC)c(N3CCN(C)CC3)cc2OC)nc1Nc1ccc2nccnc2c1NS(C)(=O)=O [II-41]	≤ 50	≤ 50	≤ 50	50 to 500	≤ 50	≤ 50
C=Cc1cnc(Nc2cc(CC3CC3)c(N3CCC(N4CCN(C)CC4)CC3)cc2OC)nc1Nc1ccc2nccnc2c1P(C)(C)=O [Compound I-7]	≤ 50	≤ 50	≤ 50	≤ 50	≤ 50	≤ 50
C=C(C)c1cnc(Nc2cnn(C)c2)nc1Nc1ccc2nccnc2c1N(C)S(C)(=O)=O [II-71]	50 to 500	50 to 500	≤ 50	≤ 50	≤ 50	50 to 500
C=Cc1cnc(Nc2ccc3c(c2)CCN(C)CC3)nc1Nc1ccc2nccnc2c1P(C)(C)=O [Compound I-24]	50 to 500	≤ 50	50 to 500	50 to 500	50 to 500	50 to 500
C=Cc1cnc(Nc2cc(CC)c(N3CCC(N(C)C)C3)cc2OC)nc1Nc1ccc2nccnc2c1NS(C)(=O)=O (stereo not drawn) [II-40]	≤ 50	≤ 50	≤ 50	50 to 500	≤ 50	≤ 50
C=Cc1cnc(Nc2ccc(N3CCC(N4CCN(C)CC4)CC3)c(CC)c2)nc1Nc1ccc2nccnc2c1P(C)(C)=O [Compound I-18]	50 to 500	≤ 50	50 to 500	50 to 500	≤ 50	≤ 50
C=C(C)c1cnc(Nc2cc(C(C)C)c(N3CCC(N4CCN(C)CC4)CC3)cc2OC)nc1Nc1ccc2nccnc2c1N(C)S(C)(=O)=O [II-22]	50 to 500	50 to 500	50 to 500	50 to 500	50 to 500	500 to 2500
C=Cc1cnc(Nc2cccc(C3CCN(C)CC3)c2)nc1Nc1ccc2nccnc2c1P(C)(C)=O [Compound I-22]	50 to 500	50 to 500	50 to 500	≤ 50	500 to 2500	50 to 500
C=Cc1cnc(Nc2cc(CC)c(N3CCC(N4CCN(C)CC4)CC3)cc2OC(F)(F)F)nc1Nc1ccc2nccnc2c1N(C)S(C)(=O)=O [II-6]	50 to 500	50 to 500	≤ 50	50 to 500	≤ 50	50 to 500
C=Cc1cnc(Nc2cc(C3CC3)c(N3CCC(N4CCN(C)CC4)CC3)cc2OC)nc1Nc1ccc2nccnc2c1P(C)(C)=O [Compound I-17]	50 to 500	50 to 500	50 to 500	50 to 500	50 to 500	50 to 500
C=Cc1cnc(Nc2cc(Cc3ccccc3)c(N3CCC(N4CCN(C)CC4)CC3)cc2OC)nc1Nc1ccc2nccnc2c1N(C)S(C)(=O)=O [II-19]	500 to 2500	500 to 2500	50 to 500	500 to 2500	≤ 50	50 to 500
C=Cc1cnc(Nc2cc(CC)c(N(C)CCN(C)C)cc2OC)nc1Nc1ccc2nccnc2c1N(C)S(C)(=O)=O [II-51]	50 to 500	500 to 2500	50 to 500	50 to 500	50 to 500	50 to 500
C=Cc1cnc(Nc2cc(CC)c(N3CCC(N4CCN(C)CC4)CC3)nc2OC)nc1Nc1ccc2nccnc2c1NS(C)(=O)=O [II-33]	≤ 50	≤ 50	50 to 500	50 to 500	50 to 500	50 to 500
C=Cc1cnc(Nc2cc(CC)c(N3CCC(N4CCN(C)CC4)CC3)cc2OC)nc1Nc1ccc2nccnc2c1NS(=O)(=O)C(C)C [II-44]	50 to 500	50 to 500	50 to 500	500 to 2500	50 to 500	≤ 50
C=Cc1cnc(Nc2cc(CC)c(N3CCC(N4CCN(C)CC4)CC3)cc2OC)nc1Nc1ccc2nccnc2c1N(C)S(=O)(=O)C1CC1 [II-11]	≤ 50	50 to 500	≤ 50	50 to 500	50 to 500	50 to 500
CCc1cc(Nc2ncc(C3=CCCC3)c(Nc3ccc4nccnc4c3N(C)S(C)(=O)=O)n2)c(OC)cc1N1CCC(N2CCN(C)CC2)CC1 [II-27]	≤ 50	50 to 500	500 to 2500	500 to 2500	500 to 2500	500 to 2500
C=Cc1cnc(Nc2cn(CC)nc2C)nc1Nc1ccc2nccnc2c1N(C)S(C)(=O)=O [II-67]	50 to 500	50 to 500	50 to 500	50 to 500	50 to 500	50 to 500
C=Cc1cnc(Nc2cc(CC)c(N3CCC(C4CN(C)C4)CC3)cc2OC)nc1Nc1ccc2nccnc2c1N(C)S(C)(=O)=O [II-54]	≤ 50	≤ 50	≤ 50	50 to 500	≤ 50	≤ 50
C=Cc1cnc(Nc2ccc(N3CCC(N4CCN(C)CC4)CC3)c(CC)c2)nc1Nc1ccc2nccnc2c1N(C)S(C)(=O)=O [II-20]	≤ 50	≤ 50	≤ 50	≤ 50	≤ 50	≤ 50
C=Cc1cnc(Nc2cc(C)c(N3CCC(N4CCN(C)CC4)CC3)cc2OC)nc1Nc1ccc2nccnc2c1N(C)S(C)(=O)=O [II-15]	≤ 50	≤ 50	≤ 50	≤ 50	≤ 50	≤ 50

Next, values leading:

GI50 [1] [nM]	GI50 [2] [nM]	GI50 [3] [nM]	GI50 [4] [nM]	GI50 [5] [nM]	GI50 [6] [nM]	Structure (SMILES)
500 to 2500	500 to 2500	500 to 2500	50 to 500	500 to 2500	500 to 2500	C=Cc1cnc(Nc2cc(CC)c(N3CCC(N(C)C)C3)cc2OC)nc1Nc1ccc2nccnc2c1S(C)(=O)=O (stereo not drawn) [III-3]
50 to 500	50 to 500	50 to 500	50 to 500	50 to 500	50 to 500	C=Cc1cnc(Nc2cc(CC)c(N3CCC(N(C)C)C3)cc2OC)nc1Nc1ccc2nccnc2c1S(=O)(=O)NC (stereo not drawn) [IV-14]
50 to 500	500 to 2500	50 to 500	50 to 500	50 to 500	50 to 500	C=Cc1cnc(Nc2cc(CC3CC3)c(N3CCC(N4CCN(C)CC4)CC3)cc2OC)nc1Nc1ccc2nccnc2c1S(=O)(=O)NC [IV-8]
50 to 500	500 to 2500	50 to 500	50 to 500	500 to 2500	500 to 2500	C=Cc1cnc(Nc2cc(CC3CC3)c(N3CCC(N4CCN(C)CC4)CC3)cc2OC)nc1Nc1ccc2nccnc2c1S(C)(=O)=O [III-13]
500 to 2500	500 to 2500	50 to 500	50 to 500	500 to 2500	50 to 500	C=Cc1cnc(Nc2cc(CC)c(N3CCC(N4CCN(C)CC4)CC3)nc2OC)nc1Nc1ccc2nccnc2c1S(=O)(=O)NC [IV-4]
50 to 500	50 to 500	50 to 500	50 to 500	50 to 500	50 to 500	C=Cc1cnc(Nc2cc(C3CC3)c(N3CCC(N4CCN(C)CC4)CC3)cc2OC)nc1Nc1ccc2nccnc2c1S(=O)(=O)NC [IV-7]
50 to 500	50 to 500	50 to 500	≤ 50	50 to 500	50 to 500	C=Cc1cnc(Nc2ccc(N3CCC(N4CCN(C)CC4)CC3)c(CC)c2)nc1Nc1ccc2nccnc2c1S(=O)(=O)NC [IV-9]
500 to 2500	50 to 500	500 to 2500	50 to 500	500 to 2500	500 to 2500	C=Cc1cnc(Nc2cc(C(C)C)c(N3CCC(N4CCN(C)CC4)CC3)cc2OC)nc1Nc1ccc2nccnc2c1S(=O)(=O)C(C)C [III-20]
